Data: patent US9469652B2, “ERK inhibitors” (Eli Lilly and Company, priority 2014, dated 2016)

Assays:
[1] = tested on: human colorectal cancer cells COLO-205; assay: Xenograft tumor model COLO-205; assay type: in vivo, female athymic nude mice; conditions: oral gavage; for Delta T/C % or Regr %: negative = regression
Experimental: (§1) The purpose of this assay is to measure reduction in tumor volume in response to test compound administration. Expand human colorectal cancer cells HCT116 (ATCC, # CCL-247) in culture, harvest and inject 5×10e^6 cells in 200 μL of 1:1 HBSS+matrigel solution subcutaneously on to the rear right flank of female athymic nude mice (22-25 g, Harlan Laboratories). Expand human pancreatic cancer cells MIA PACA-2 (ATCC, # CRL-1420) or human non-small cell lung cancer cells CALU-6 (ATCC, #HTB-56) or human colorectal cancer cells COLO-205 (ATCC, #CCL-222) in culture, harvest and inject 5×10e^6 cells in 200 μL of 1:1 HBSS+matrigel solution subcutaneously on to the rear right flank of female athymic nude mice (22-25 g, Harlan Laboratories). Measure tumor growth and body weight twice per week beginning the seventh day after the implantation. When tumor sizes reach 200-400 mm^3, randomize animals and group into groups of eight to ten animals. Prepare test compound in an appropriate vehicle (vehicle: 1% HEC/0.25% Tween 80/0.05% Antifoam) and administer by oral gavage for 14 to 21 days. Tumor response is determined by tumor volume measurement performed twice a week during the course of treatment. Body weight is taken as a general measure of toxicity.
(§2) A compound within the scope of invention is tested in this assay run substantially as above.

[2] = tested on: human pancreatic cancer cells MIA PACA-2; assay: Xenograft tumor model MIA PACA-2; assay type: in vivo, female athymic nude mice; conditions: oral gavage; for Delta T/C % or Regr %: negative = regression
Experimental: as §1, §2

[3] = tested on: human non-small cell lung cancer cells NCI-H441 (KRAS_G12V); assay: In vivo combination study, NCI-H441 NSCLC xenograft model; conditions: single agent
Experimental: More specifically, the compound of Example 1 is tested in combination with either the pan-RAF inhibitor compound or the CDK4/6 inhibitor compound in HCT116, a KRAS mutant colorectal cancer xenograft model. Also, the compound of Example 1 is tested in combination with either the CDK4/6 inhibitor compound or DC101 in NCI-H441, A549, and NCI-H2122, KRAS mutant non-small cell lung cancer (NSCLC) xenograft models.
Combination efficacy is also tested in three KRAS mutant NSCLC xenograft models including A549 (KRAS_G12S) in SCID mice as well as NCI-H441 (KRAS_G12V) and NCI-H2122 (KRAS_G12C) in athymic nude mice. Expand human non-small cell lung cancer cells NCI-H441 (ATCC, #CRL-5807) and NCI-H2122 (ATCC, #CRL-5985) in culture, harvest and inject 5×10e^6 cells in 200 μL of 1:1 HBSS+matrigel solution subcutaneously on to the rear right flank of female athymic nude mice (20-22 gm, Harlan Laboratories). Expand human non-small cell lung cancer cells A549 (ATCC, #CC1-185) in culture, harvest and inject 5×10e^6 cells in 200 μL of 1:1 HBSS+matrigel solution subcutaneously on to the rear right flank of female CB-17 SCID mice (18-20 gm, Taconic Farms). For all cell lines, measure tumor growth and body weight twice per week beginning the seventh day after the implantation. When average tumor sizes reach 200-300 mm^3, randomize animals and group into groups of five to seven animals. Prepare test compound in an appropriate vehicle (see below) and administer by oral gavage (compound of Example 1 and the CDK4/6 inhibitor compound) or intraperitoneally (DC101) for 21 to 28 days. Tumor response is determined by tumor volume measurement performed twice a week during the course of treatment. Vehicle used in these studies is 1% HEC/0.25% Tween® 80/0.05% Antifoam. The compound of Example 1 is formulated in 1% HEC/0.25% Tween® 80/0.05% Antifoam and the CDK4/6 inhibitor compound is formulated in 1% HEC in 25 mM sodium phosphate buffer, pH 2. […] In the same NCI-H441 xenograft model, DC101 in phosphate buffer is also administered intraperitoneally twice per week (BIW) as a single agent or in combination with the compound of Example 1, 50 mpk, QD for 28 days.

Compound: Cn1nccc1Nc1nccc(-c2cc3c(s2)C(C)(C)N(CCN2CCOCC2)C3=O)n1 [Example 1, 6,6-Dimethyl-2-{2-[(1-methyl-1H-pyrazol-5-yl)amino]pyrimidin-4-yl}-5-[2-(morpholin-4-yl)ethyl]-5,6-dihydro-4H-thieno[2,3-c]pyrrol-4-one]
- TGI % ([1]; 12.5 mg/kg QD): 119%
- Delta T/C % or Regr % ([1]; 12.5 mg/kg QD): −19%
- TGI % ([1]; 25 mg/kg QD): 132%
- Delta T/C % or Regr % ([1]; 25 mg/kg QD): −32%
- TGI % ([1]; 100 mg/kg QD): 176%
- Delta T/C % or Regr % ([1]; 100 mg/kg QD): −76%
- TGI % ([2]; 12.5 mg/kg QD): 68%
- Delta T/C % or Regr % ([2]; 12.5 mg/kg QD): 32%
- TGI % ([2]; 25 mg/kg QD): 98%
- Delta T/C % or Regr % ([2]; 25 mg/kg QD): 2%
- TGI % ([2]; 50 mg/kg QD): 122%
- Delta T/C % or Regr % ([2]; 50 mg/kg QD): −22%
- TGI % ([2]; 100 mg/kg QD): 166%
- Delta T/C % or Regr % ([2]; 100 mg/kg QD): −66%
- Regression % ([3]; 50 mg/kg QD, oral, 28 days): 1%
- tumor growth inhibition ([3]; 50 mpk): 101%
